Molecular target: Histamine H1 receptor (Cavia porcellus, UniProt P31389)
Sequence (P31389 whole entry): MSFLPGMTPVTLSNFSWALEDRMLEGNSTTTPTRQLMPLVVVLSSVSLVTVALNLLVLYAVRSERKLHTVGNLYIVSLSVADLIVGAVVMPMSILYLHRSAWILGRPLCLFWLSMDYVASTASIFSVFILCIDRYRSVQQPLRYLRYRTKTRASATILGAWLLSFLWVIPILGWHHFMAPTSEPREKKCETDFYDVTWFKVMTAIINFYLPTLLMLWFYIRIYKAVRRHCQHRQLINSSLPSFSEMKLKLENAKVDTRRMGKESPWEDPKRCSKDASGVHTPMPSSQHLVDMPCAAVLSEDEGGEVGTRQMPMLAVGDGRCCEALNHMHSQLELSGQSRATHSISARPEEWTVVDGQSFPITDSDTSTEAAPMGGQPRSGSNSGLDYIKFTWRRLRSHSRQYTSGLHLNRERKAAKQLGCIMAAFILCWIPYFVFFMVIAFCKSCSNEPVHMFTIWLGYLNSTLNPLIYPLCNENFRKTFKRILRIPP

Ki [nM]	Compound
12.6	O=C(O)COCCN1CCN(C(c2ccccc2)c2ccc(Cl)cc2)CC1 (configuration not stated)
0.31	Cc1ccc(/C(=C\CN2CCCC2)c2ccccn2)cc1 [Actahist]

— BindingDB's records for doi:10.1111/j.1432-1033.1994.00489.x (Universit&Eacute, 1994)
